Species on record: Rattus norvegicus
Assay: DrugMatrix - Regimen: Daily Repeat
Format: toxicity, organism-based, Sprague-Dawley
Parameters: regimen Daily Repeat, gender Male, age 6-8 weeks
Settings: in vivo, po, route oral GAVAGE, vehicle 100 % WATER; for ABSOLUTE BASOPHIL / ABSOLUTE EOSINOPHIL / ABSOLUTE LYMPHOCYTE / ABSOLUTE MONOCYTE / ABSOLUTE SEGMENTED NEUTROPHIL / BASOPHIL / EOSINOPHIL / ERYTHROCYTE COUNT / HEMATOCRIT / HEMOGLOBIN / LEUKOCYTE COUNT / LYMPHOCYTE / MEAN CORPUSCULAR HEMOGLOBIN / MEAN CORPUSCULAR HEMOGLOBIN CONCENTRATION / MEAN CORPUSCULAR VOLUME / MONOCYTE / NEUTROPHIL / NUCLEATED RED BLOOD CELLS / PLATELET COUNT: tissue Blood; for ALANINE AMINOTRANSFERASE / ALBUMIN / ALKALINE PHOSPHATASE / ASPARTATE AMINOTRANSFERASE / BLOOD UREA NITROGEN / CARBON DIOXIDE / CHLORIDE / CHOLESTEROL / CREATINE PHOSPHOKINASE / CREATININE / GLUCOSE / LACTATE DEHYDROGENASE / LIPASE / PHOSPHORUS / POTASSIUM / SODIUM / TOTAL BILIRUBIN / TOTAL PROTEIN / URIC ACID: tissue Plasma
[1] = 0 mg/kg, 72 h, dose level Control, time 3 day
[2] = 0 mg/kg, 120 h, dose level Control, time 5 day
[3] = 1 mg/kg, 72 h, dose level Low, time 3 day

## CC[C@H](C)[C@H]1O[C@]2(C=C[C@@H]1C)C[C@@H]1C[C@@H](C/C=C(\C)[C@@H](O[C@H]3C[C@H](OC)[C@@H](O[C@H]4C[C@H](OC)[C@@H](O)[C@H](C)O4)[C@H](C)O3)[C@@H](C)/C=C/C=C3\CO[C@@H]4[C@H](O)C(C)=C[C@@H](C(=O)O1)[C@]34O)O2.CO[C@H]1C[C@H](O[C@H]2[C@H](C)O[C@@H](O[C@@H]3/C(C)=C/C[C@@H]4C[C@@H](C[C@]5(C=C[C@H](C)[C@@H](C(C)C)O5)O4)OC(=O)[C@@H]4C=C(C)[C@@H](O)[C@H]5OC/C(=C\C=C\[C@@H]3C)[C@]54O)C[C@@H]2OC)O[C@@H](C)[C@@H]1O [ABAMECTIN]
[1]
  ABSOLUTE BASOPHIL: 0 CELLS/uL
  ABSOLUTE EOSINOPHIL: 40 CELLS/uL
  ABSOLUTE LYMPHOCYTE: 13599.5 CELLS/uL
  ABSOLUTE MONOCYTE: 239.33 CELLS/uL
  ABSOLUTE SEGMENTED NEUTROPHIL: 1021.17 CELLS/uL
  BASOPHIL: 0%
  EOSINOPHIL: 0.33%
  ERYTHROCYTE COUNT: 5.71 x10E6/uL
  HEMATOCRIT: 36.35%
  HEMOGLOBIN: 14.05 G/DL
  LEUKOCYTE COUNT: 14.9 x10E3/uL
  LYMPHOCYTE: 91%
  MEAN CORPUSCULAR HEMOGLOBIN: 24.62 pg
  MEAN CORPUSCULAR HEMOGLOBIN CONCENTRATION: 38.65 G/DL
  MEAN CORPUSCULAR VOLUME: 63.7 fL
  MONOCYTE: 1.5%
  NEUTROPHIL: 7.17%
  NUCLEATED RED BLOOD CELLS: 0.33 /100WBC
  PLATELET COUNT: 1225.5 x10E3/uL
  ALANINE AMINOTRANSFERASE: 48.5 u/L
  ALBUMIN: 4.18 G/DL
  ALKALINE PHOSPHATASE: 390.83 u/L
  ASPARTATE AMINOTRANSFERASE: 89 u/L
  BLOOD UREA NITROGEN: 14.83 mg/dL
  CARBON DIOXIDE: 24.83 mmol/L
  CHLORIDE: 100.83 MEQ/L
  CHOLESTEROL: 72.5 mg/dL
  CREATINE PHOSPHOKINASE: 503 u/L
  CREATININE: 0.2 mg/dL
  GLUCOSE: 163 mg/dL
  LACTATE DEHYDROGENASE: 316.83 u/L
  LIPASE: 9.83 u/L
  PHOSPHORUS: 11.57 mg/dL
  POTASSIUM: 6.16 MEQ/L
  SODIUM: 142.62 MEQ/L
  TOTAL BILIRUBIN: 0.2 mg/dL
  TOTAL PROTEIN: 5.8 G/DL
  URIC ACID: 1.65 mg/dL
[2]
  ABSOLUTE BASOPHIL: 0 CELLS/uL
  ABSOLUTE EOSINOPHIL: 21 CELLS/uL
  ABSOLUTE LYMPHOCYTE: 14288.5 CELLS/uL
  ABSOLUTE MONOCYTE: 205.33 CELLS/uL
  ABSOLUTE SEGMENTED NEUTROPHIL: 968.5 CELLS/uL
  BASOPHIL: 0%
  EOSINOPHIL: 0.17%
  ERYTHROCYTE COUNT: 5.83 x10E6/uL
  HEMATOCRIT: 36.53%
  HEMOGLOBIN: 14.4 G/DL
  LEUKOCYTE COUNT: 15.48 x10E3/uL
  LYMPHOCYTE: 92%
  MEAN CORPUSCULAR HEMOGLOBIN: 24.72 pg
  MEAN CORPUSCULAR HEMOGLOBIN CONCENTRATION: 39.43 G/DL
  MEAN CORPUSCULAR VOLUME: 62.68 fL
  MONOCYTE: 1.33%
  NEUTROPHIL: 6.5%
  NUCLEATED RED BLOOD CELLS: 0.17 /100WBC
  PLATELET COUNT: 1280.5 x10E3/uL
  ALANINE AMINOTRANSFERASE: 50 u/L
  ALBUMIN: 4.28 G/DL
  ALKALINE PHOSPHATASE: 380.17 u/L
  ASPARTATE AMINOTRANSFERASE: 82.67 u/L
  BLOOD UREA NITROGEN: 15.33 mg/dL
  CARBON DIOXIDE: 27.17 mmol/L
  CHLORIDE: 100.33 MEQ/L
  CHOLESTEROL: 60.67 mg/dL
  CREATINE PHOSPHOKINASE: 441.5 u/L
  CREATININE: 0.16 mg/dL
  GLUCOSE: 146 mg/dL
  LACTATE DEHYDROGENASE: 189.33 u/L
  LIPASE: 9.17 u/L
  PHOSPHORUS: 11.67 mg/dL
  POTASSIUM: 6.86 MEQ/L
  SODIUM: 142.33 MEQ/L
  TOTAL BILIRUBIN: 0.2 mg/dL
  TOTAL PROTEIN: 6.12 G/DL
  URIC ACID: 1.82 mg/dL
[3]
  ABSOLUTE BASOPHIL: 0 CELLS/uL
  ABSOLUTE EOSINOPHIL: 0 CELLS/uL
  ABSOLUTE LYMPHOCYTE: 13707 CELLS/uL
  ABSOLUTE MONOCYTE: 388 CELLS/uL
  ABSOLUTE SEGMENTED NEUTROPHIL: 1005 CELLS/uL
  BASOPHIL: 0%
  EOSINOPHIL: 0%
  ERYTHROCYTE COUNT: 5.4 x10E6/uL
  HEMATOCRIT: 34.53%
  HEMOGLOBIN: 13.23 G/DL
  LEUKOCYTE COUNT: 15.1 x10E3/uL
  LYMPHOCYTE: 91%
  MEAN CORPUSCULAR HEMOGLOBIN: 24.47 pg
  MEAN CORPUSCULAR HEMOGLOBIN CONCENTRATION: 38.3 G/DL
  MEAN CORPUSCULAR VOLUME: 63.93 fL
  MONOCYTE: 2.67%
  NEUTROPHIL: 6.33%
  NUCLEATED RED BLOOD CELLS: 0 /100WBC
  PLATELET COUNT: 1310 x10E3/uL
  ALANINE AMINOTRANSFERASE: 54 u/L
  ALBUMIN: 4.17 G/DL
  ALKALINE PHOSPHATASE: 413 u/L
  ASPARTATE AMINOTRANSFERASE: 81.33 u/L
  BLOOD UREA NITROGEN: 14.33 mg/dL
  CARBON DIOXIDE: 26.67 mmol/L
  CHLORIDE: 100.33 MEQ/L
  CHOLESTEROL: 79.67 mg/dL
  CREATINE PHOSPHOKINASE: 332.67 u/L
  CREATININE: 0.19 mg/dL
  GLUCOSE: 158 mg/dL
  LACTATE DEHYDROGENASE: 294.67 u/L
  LIPASE: 9 u/L
  PHOSPHORUS: 11.97 mg/dL
  POTASSIUM: 6.52 MEQ/L
  SODIUM: 142.57 MEQ/L
  TOTAL BILIRUBIN: 0.23 mg/dL
  TOTAL PROTEIN: 5.73 G/DL
  URIC ACID: 1.57 mg/dL

From ChEMBL document CHEMBL3885881, “DrugMatrix”
